Structures are written as SMILES.

The nature of the series: Thioether (C-S) macrocyclisation: SN2' of the free C-terminal Cys-NH2 thiol on an N-terminal O-acetyl Morita-Baylis-Hillman (2-methylene-3-acetoxyacyl) residue, Et3N 3% v/v, 48 h; crude cleaved linear peptides. The following applies: the molecule shown is the open-chain precursor, 16-membered ring, dry THF/CH2Cl2 1:1, 1.0 mM, 25.0 °C, 11 steps.
Regarding `C=C(C(=O)N[C@@H](C)C(=O)N[C@@H](CC(C)C)C(=O)N[C@@H](Cc1ccccc1)C(=O)N[C@@H](CS)C(N)=O)C(C)OC(C)=O` (stereo partly drawn) [CH3CH(OAc)C(=CH2)CO-Ala-Leu-Phe-Cys-NH2], the ring closure, overall yield amounted to 14.8%.

`C=C(C(=O)N[C@@H](Cc1ccccc1)C(=O)N[C@H](CC(C)C)C(=O)N[C@@H](C)C(=O)N[C@@H](CS)C(N)=O)C(C)OC(C)=O` (stereo partly drawn) [CH3CH(OAc)C(=CH2)CO-Phe-D-Leu-Ala-Cys-NH2] showed a ring closure, overall yield of 14.4%.

`C=C(C(=O)N[C@@H](Cc1ccccc1)C(=O)N[C@H](CC(C)C)C(=O)N[C@H](C)C(=O)N[C@@H](CS)C(N)=O)C(C)OC(C)=O` (stereo partly drawn) [CH3CH(OAc)C(=CH2)CO-Phe-D-Leu-D-Ala-Cys-NH2]: the ring closure, overall yield was found to be 7.3%.

As to `C=C(C(=O)N[C@@H](Cc1ccccc1)C(=O)N[C@@H](CC(C)C)C(=O)N[C@@H](C)C(=O)N[C@@H](CS)C(N)=O)C(C)OC(C)=O` (stereo partly drawn) [CH3CH(OAc)C(=CH2)CO-Phe-Leu-Ala-Cys-NH2], the ring closure, overall yield is 10.2%.

Consider `C=C(C(=O)N[C@@H](Cc1ccccc1)C(=O)N[C@@H](CC(C)C)C(=O)N[C@H](C)C(=O)N[C@@H](CS)C(N)=O)C(C)OC(C)=O` (stereo partly drawn) [CH3CH(OAc)C(=CH2)CO-Phe-Leu-D-Ala-Cys-NH2], for which the ring closure, overall yield worked out at 2.7%.

For the compound `C=C(C(=O)N[C@@H](Cc1ccccc1)C(=O)N[C@H](CC(C)C)C(=O)N[C@H](C)C(=O)N[C@@H](CS)C(N)=O)C(CCCCCC)OC(C)=O` (stereo partly drawn) [n-C6H13CH(OAc)C(=CH2)CO-Phe-D-Leu-D-Ala-Cys-NH2], the ring closure, overall yield came to 11.8%.

The compound `C=C(C(=O)N[C@@H](Cc1ccccc1)C(=O)N[C@@H](CC(C)C)C(=O)N[C@H](C)C(=O)N[C@@H](CS)C(N)=O)C(CCCCCC)OC(C)=O` (stereo partly drawn) [n-C6H13CH(OAc)C(=CH2)CO-Phe-Leu-D-Ala-Cys-NH2] returned a ring closure, overall yield of 4.7%.

For the origin of these results see PMC6839570.
